{"source": "patent US11643474B2", "about": "“Peptide fusion protein” (KAGOSHIMA UNIVERSITY, priority 2018, dated 2023)", "key": {"[1]": {"test_system": "human serum-derived γ-globulin", "test": "Dynamic binding capacity (DBC) measurement on ligand-immobilized NHS-activated prepack column", "conditions": "1 mL column; 1 mg/mL γ-globulin at 1 mL/min; 10% breakthrough at 280 nm; equimolar ligand (7.3 mg protein or 0.5 mg peptide)", "procedure": "To examine whether the IgG-binding peptide divalent fusion protein can be used as an affinity ligand for human antibody purification, the protein prepared in Example 2 (sfGFP-173 C-2Opt1 GS12) was immobilized on an NHS-activated prepack column (GE Healthcare), and the adsorption performance was evaluated. The protein-immobilized column was prepared by the following method. A syringe was used to feed the solution.\n5 mL of 1 mM hydrochloric acid was fed to a NHS-activated prepack column with a volume of 1 mL to remove the isopropanol solution in the column. Then, 1 mL of a coupling solution (200 mM carbonate buffer, 500 mM sodium chloride, pH 8.3) containing 7.3 mg of an IgG-binding peptide fusion protein was fed and immobilized at room temperature for 1 hour. The unreacted NHS ester was blocked by adding tris-hydroxymethylaminomethane. Finally, 5 mL of an adsorption solution (20 mM phosphate buffer, 150 mM sodium chloride, pH 7.4) was fed and used for DBC measurement.\nThe DBC measurement was performed using a liquid chromatography instrument AKTAexplore (GE Healthcare). […] The DBC was determined from the amount of the sample fed until the value of an absorbance at 280 nm excluding the non-adsorbed component reached 10% of the absorbance of the entire sample. […]"}, "human IgG": {"test_system": "human IgG", "test": "Affinity measurement to IgG by surface plasmon resonance (BIAcore T200)", "assay_type": "binding", "conditions": "ligand immobilized onto sensor chip, HBS-EP buffer pH 7.4", "procedure": "The affinity analysis was performed by the following method. First, a solution containing equal amounts of 0.4 M EDC (1-ethyl-3-(3-dimethylaminopropyl)-carbodiimide) and 0.1 M sulfo-NHS (sulfo-N-hydroxysuccinimide)) was injected at a flow rate of […] onto a CMS sensor chip set in BIAcore T200 (GE healthcare), thereby activating the sensor chip. Then, under the condition of pH 5.5 (10 mM Na acetate), the purified protein (sfGFP-C-1Opt1) described above was immobilized onto the sensor chip. For the measurement, HBS-EP buffer (10 mM HEPES, 150 mM NaCl, 0.005% Tween 20, 3 mM EDTA, pH 7.4) was used, and the binding reaction was monitored by injecting 6.25, 12.5, 25, 50, 100, 200, and 400 nM human IgG for 180 seconds at a flow rate of […]. For measuring the dissociation reaction, only the buffer was injected for 600 seconds. The analysis of interaction parameters was performed using BIA evalution T100 software.\nAs Comparative Example 1, a scaffold protein (sfGFP having a His tag; DNA sequence: SEQ ID NO: 40, amino acid sequence: SEQ ID NO: 41) to which an IgG-binding peptide was not fused was expressed and purified in the same manner as in Example 1, and affinity was measured.\nProteins including two IgG-binding peptides, each consisting of the amino acid sequences represented by SEQ ID NO: 45, SEQ ID NO: 47, and SEQ ID NO: 49 (sfGFP-N C-2Opt1GS12 (DNA sequence: SEQ ID NO: 44), sfGFP-173 C-2Opt1 GS12 (DNA sequence: SEQ ID NO: 46), and sfGFP-173 C-2Opt1GS13 (DNA sequence: SEQ ID NO: 48)) were expressed and purified by the same method as in Example 1, and the affinity was measured.\nAs Comparative Example 2, the affinity measurement of the peptide (amino acid sequence: SEQ ID NO: 18) prepared by chemical synthesis was carried out in the same manner as in Example 1."}}, "data": [{"sequence": "GPDCAYHRGELVWCTFH [Comparative Example 2, reference compound]", "values": [{"measurement": "DBC (dynamic binding capacity)", "setting": "[1]", "value": 6.9, "unit": "mg/mL-column"}, {"measurement": "kon", "setting": "human IgG; 6.25-400 nM human IgG injected 180 s", "value": 330000, "unit": "M⁻¹ s⁻¹"}, {"measurement": "koff", "setting": "human IgG; buffer only injected 600 s for dissociation", "value": 0.0048, "unit": "s⁻¹"}, {"measurement": "Kd", "setting": "human IgG; human IgG as analyte", "value": 0.014, "unit": "µM"}]}]}
